{"source": "patent US8673548B2", "about": "“Genes and polypeptides relating to breast cancers” (Oncotherapy Science, Inc., priority 2006, dated 2014)", "key": {"PBK/TOPK": {"tested_on": "PBK/TOPK", "experiment": "western blot of PBK/TOPK phosphorylation in nocodazole-treated mitotic cells with pp1-18", "assay_type": "cell-based, human", "details": "T47D; nocodazole plus 10 μM peptide, 18 or 24 hours", "excerpt": "(§1) To inhibit the phosphorylation of PBK/TOPK at Thr9 by CDK1-cyclin B1, we designed permeable peptide (pp1-18) identical to the N-terminus (1-18 amino acids) of PBK/TOPK ([…]-G-[…]: SEQ ID NO: 99) was synthesized by Sigma-Aldrich. The efficacy of the peptide blocking the CDK1-cyclin B1-induced phosphorylation of PBK/TOPK was estimated by in vitro kinase assay according to in vitro kinase section. […] The phosphorylation of PBK/TOPK and cyclin B1 proteins were observed by SDS-PAGE and autoradiography. For the cell proliferation assay, T47D and HMEC cells were seeded at 1.3×10^4 cells in a 12-well plate, respectively. At the following day, each concentration (0, 2.5, 5, and 10 μM) of pp1-18 peptide was treated everyday, and cell viability was measured by MTT assay at 5th day. A significance of the pp 1-18 peptide to suppress T47D cell growth was statistically evaluated by the Student's t-test. To inhibit the phosphorylation of PBK/TOPK in mitotic cells by using pp1-18 peptide, T47D cells were seeded at 1×10^5 cells in a 60 mm dish. Two days after incubation, both nocodazole (0.3 μg/mL) and the permeable peptide (10 μM) were treated for further 18 or 24 hours before collection, and then phosphorylation of PBK/TOPK was investigated by western blotting using anti-PBK/TOPK monoclonal antibody and FACS analysis. […]"}, "CDK1-cyclin B1": {"biological_target": "T1, CDK1-cyclin B1 (Homo sapiens, UniProt P06493)", "T1 construct": "purchased New England Biolabs", "experiment": "in vitro kinase assay, CDK1-cyclin B1 phosphorylation of PBK/TOPK", "assay_type": "biochemical", "details": "peptide 0-20 μM", "experimental": "After 30 minutes incubation at 30° C., the reactions were terminated by addition of SDS-sample buffer. After boiling, the protein samples were electrophoresed and autoradiographed.\nas §1, with “dish.” for “dish. Two days after incubation, both nocodazole (0.3 μg/mL) and the permeable peptide (10 μM) were treated for further 18 or 24 hours before collection, and then phosphorylation of PBK/TOPK was investigated by western blotting using anti-PBK/TOPK monoclonal antibody and FACS analysis.”"}, "T47D cells [1]": {"tested_on": "T47D cells", "experiment": "FACS cell cycle analysis with nocodazole and pp1-18", "assay_type": "cell-based, human", "details": "24 hours after treatment of nocodazole, 10 μM peptide", "excerpt": "as §1"}, "T47D cells [2]": {"tested_on": "T47D cells", "experiment": "phase contrast microscopy of cells treated with pp1-18", "assay_type": "cell-based, human", "details": "50 μM peptide"}, "HMEC cells": {"tested_on": "HMEC cells", "experiment": "cell proliferation MTT assay with pp1-18 peptide", "assay_type": "cell-based, human", "details": "0, 2.5, 5 and 10 μM every day; MTT at 5th day", "excerpt": "as §1"}, "T47D cells [3]": {"tested_on": "T47D cells", "experiment": "cell proliferation MTT assay with pp1-18 peptide", "assay_type": "cell-based, human", "details": "0, 2.5, 5 and 10 μM every day; MTT at 5th day", "excerpt": "as §1"}}, "note": "“Also recorded” adds a separate entry of the source.", "data": [{"substance": "RRRRRRRRRRR-G-MEGISNFKTPSKLSEKKK (RRRRRRRRRRRGMEGISNFKTPSKLSEKKK; N-terminal poly-arginine (R11) and glycine linker; An artificialy designed dominant negative) [pp1-18]", "values": [{"measurement": "phosphorylation of PBK/TOPK in mitotic cells", "setting": "PBK/TOPK", "value": "drastically reduced"}, {"measurement": "phosphorylation of recombinant PBK/TOPK protein by CDK1-cyclin B1", "setting": "CDK1-cyclin B1", "value": "diminished in dose-dependent manner"}, {"measurement": "shift to G2/M phase of cell cycle", "setting": "T47D cells [1]", "value": "blocked shift to G2/M phase"}, {"measurement": "cellular morphology", "setting": "T47D cells [2]", "value": "long intercellular bridge; also recorded: prolonged midbodies by abnormal cytokinesis"}, {"measurement": "growth of HMEC cells", "setting": "HMEC cells", "value": "did not affect the growth; also recorded: no effect"}, {"measurement": "growth of T47D breast cancer cells", "setting": "T47D cells [3]", "value": "significantly suppressed cell growth; also recorded: clearly suppressed the growth"}]}]}
